Laboratory results reported in patent publication US11814367B2, “Inhibitors of glycogen synthase 1 (GYS1) and methods of use thereof” (Maze Therapeutics, Inc., priority 2021, dated 2023).

How the values were obtained:
[1] = tested on: hGYS1 enzyme / glycogen synthesis in HeLa cells; assay: GYS1 cell based assay (glycogen synthesis, Glucose-glo); design: species or system human; conditions: 24 h incubation, 20 mM glucose, geometric mean of at least 2 runs
In short: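 HeLa cells starved 24 h in medium containing only 1× Glutamax were plated onto compound in medium with 20 mM glucose (1% DMSO final) for 24 h, 37 °C, 5% CO2. Acid lysates were Tris-quenched, glucoamylase-digested (pH 5.3, 1 h, 37 °C) and read by Glucose-glo luminescence. IC50 came from Hill fits, as geometric mean of ≥2 runs.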

[2] = target: hGYS1 enzyme (recombinant hGYS1/GN1 protein) (Homo sapiens (Human), UniProt P13807); assay: GYS1 coupled enzyme assay (PK/LDH); type: biochemical; conditions: hGYS1/GN1 50 nM, UDP-Glucose 0.8 mM, G6P 1 mM; geometric mean of at least 2 runs
Sequence of hGYS1 enzyme (recombinant hGYS1/GN1 protein) (P13807 whole entry): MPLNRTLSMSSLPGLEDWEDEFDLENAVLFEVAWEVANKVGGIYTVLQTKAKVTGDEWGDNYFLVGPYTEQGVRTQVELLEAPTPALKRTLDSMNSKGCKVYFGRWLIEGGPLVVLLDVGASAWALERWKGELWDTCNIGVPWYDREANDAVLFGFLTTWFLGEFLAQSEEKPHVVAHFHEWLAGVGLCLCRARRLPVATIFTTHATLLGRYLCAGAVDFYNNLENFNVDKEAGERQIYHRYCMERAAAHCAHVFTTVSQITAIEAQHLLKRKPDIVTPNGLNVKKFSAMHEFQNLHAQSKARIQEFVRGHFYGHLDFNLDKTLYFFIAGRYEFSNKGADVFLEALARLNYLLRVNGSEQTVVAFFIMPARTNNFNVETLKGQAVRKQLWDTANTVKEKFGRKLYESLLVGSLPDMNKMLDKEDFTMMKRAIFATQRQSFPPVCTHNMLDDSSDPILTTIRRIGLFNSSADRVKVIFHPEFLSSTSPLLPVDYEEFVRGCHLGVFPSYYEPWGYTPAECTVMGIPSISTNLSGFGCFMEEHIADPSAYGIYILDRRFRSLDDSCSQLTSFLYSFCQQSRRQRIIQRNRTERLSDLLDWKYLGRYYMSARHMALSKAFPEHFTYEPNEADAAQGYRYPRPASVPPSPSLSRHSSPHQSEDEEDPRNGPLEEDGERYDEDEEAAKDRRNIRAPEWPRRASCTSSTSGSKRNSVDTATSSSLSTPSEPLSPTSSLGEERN
Sequence of hGYS1 enzyme (recombinant hGYS1/GN1 protein) (P46976 whole entry partner): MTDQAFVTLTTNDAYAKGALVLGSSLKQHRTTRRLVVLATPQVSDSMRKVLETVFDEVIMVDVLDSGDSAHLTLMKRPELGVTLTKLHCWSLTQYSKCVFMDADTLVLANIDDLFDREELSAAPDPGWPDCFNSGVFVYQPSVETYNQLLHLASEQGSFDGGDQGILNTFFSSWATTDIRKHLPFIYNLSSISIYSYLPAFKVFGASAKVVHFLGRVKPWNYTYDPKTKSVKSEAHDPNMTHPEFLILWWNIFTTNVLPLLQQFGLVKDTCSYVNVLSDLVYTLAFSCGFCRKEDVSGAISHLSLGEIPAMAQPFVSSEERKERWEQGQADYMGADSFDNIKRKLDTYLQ

Compound	IC50 [1] [nM]	IC50 [2] [nM]	IC50 ([1]; Homo sapiens, HeLa, 24 h) [nM]
(2S,4R)-4-fluoro- N-[(S) or (R)-[6- fluoro-5-(propan- 2-yl)pyridin-2- yl][3-(1,2-oxazol-5- yl)phenyl]methyl]- 1-[2-(1H-1,2,3- triazol-5- yl)acetyl]pyrrolidine- 2-carboxamide [Compound 694]	1210	34	–
O=C(NC(c1ccccc1)c1ccc(C2CC2)cn1)[C@@H]1C[C@@H](F)CN1C(=O)Cc1cnn[nH]1 (single isomer, unassigned) [Compound 498, (2S,4R)-1-(2-(1H-1,2,3-triazol-5-yl)acetyl)-N—((R) or (S)-(5-cyclopropylpyridin-2-yl)(phenyl)methyl)-4-fluoropyrrolidine-2-carboxamide]	> 10000	> 10000	–
O=C(N[C@@H](c1ccccc1)c1ccc(C2CC(F)(F)C2)cn1)[C@@H]1C[C@@H](F)CN1C(=O)Cc1nc(C(F)(F)F)co1 [Compound 543, (2S,4R)-N-[(S)-[5-(3,3-difluorocyclobutyl)pyridin-2-yl](phenyl)methyl]-4-fluoro-1-{2-[4-(trifluoromethyl)-1,3-oxazol-2-yl]acetyl}pyrrolidine-2-carboxamide]	–	49	610
CCN(CC)c1cnnn1CC(=O)N1C[C@H](F)C[C@H]1C(=O)N[C@@H](c1ccccc1)c1ccc(C(C)C)cn1 [Compound 713, (2S,4R)-1-{2-[5-(diethylamino)-1H-1,2,3-triazol-1-yl]acetyl}-4-fluoro-N-[(S)-phenyl[5-(propan-2-yl)pyridin-2-yl]methyl]pyrrolidine-2-carboxamide]	–	74	860
CC1(c2ccc([C@H](NC(=O)[C@@H]3C[C@@H](F)CN3C(=O)Cc3cnn[nH]3)c3ccccc3)cc2F)CCC1 [Compound 684, (2S,4R)-4-fluoro-N-[(R)-[3-fluoro-4-(1-methylcyclobutyl)phenyl](phenyl)methyl]-1-[2-(1H-1,2,3-triazol-5-yl)acetyl]pyrrolidine-2-carboxamide]	–	1330	13800
CC(=O)N(C)[C@H](C)C(=O)N1C[C@H](F)C[C@H]1C(=O)N[C@@H](c1ccccc1)c1ccc(C(C)C)cc1 [Compound 145, (2S,4R)-4-fluoro-1-[(2R)-2-(N-methylacetamido)propanoyl]-N-[(S)-phenyl[4-(propan-2-yl)phenyl]methyl]pyrrolidine-2-carboxamide]	–	915	> 10000
O=C(N[C@@H](c1ccccc1)c1ccc(C2CC2)c(F)n1)[C@@H]1C[C@@H](F)CN1C(=O)Cc1[nH]nnc1C(F)F [Compound 756, (2S,4R)-N-[(S)-(5-cyclopropyl-6-fluoropyridin-2-yl)(phenyl)methyl]-1-{2-[4-(difluoromethyl)-1H-1,2,3-triazol-5-yl]acetyl}-4-fluoropyrrolidine-2-carboxamide]	–	23	1700
Cc1cc(C(F)F)nn1CC(=O)N1C[C@H](F)C[C@H]1C(=O)N[C@@H](c1ccccc1)c1ccc(C2CC2)c(F)n1 [Compound 752, (2S,4R)-N-[(S)-(5-cyclopropyl-6-fluoropyridin-2-yl)(phenyl)methyl]-1-{2-[3-(difluoromethyl)-5-methyl-1H-pyrazol-1-yl]acetyl}-4-fluoropyrrolidine-2-carboxamide]	–	21	640
Cc1cc(C(F)F)n(CC(=O)N2C[C@H](F)C[C@H]2C(=O)N[C@@H](c2ccccc2)c2ccc(C3CC3)c(F)n2)n1 [Compound 750, (2S,4R)-N-[(S)-(5-cyclopropyl-6-fluoropyridin-2-yl)(phenyl)methyl]-1-{2-[5-(difluoromethyl)-3-methyl-1H-pyrazol-1-yl]acetyl}-4-fluoropyrrolidine-2-carboxamide]	–	11	260
COc1nc(CC(=O)N2C[C@H](F)C[C@H]2C(=O)N[C@@H](c2ccccc2)c2ccc(C3CC3)c(F)n2)nn1C [Compound 743, (2S,4R)-N-[(S)-(5-cyclopropyl-6-fluoropyridin-2-yl)(phenyl)methyl]-4-fluoro-1-[2-(5-methoxy-1-methyl-1H-1,2,4-triazol-3-yl)acetyl]pyrrolidine-2-carboxamide]	–	28	480
CC(C)c1ccc([C@@H](NC(=O)[C@@H]2C[C@@H](F)CN2C(=O)Cn2nncc2N2CC(F)(F)C2)c2ccccc2)nc1F [Compound 807, (2S,4R)-1-{2-[5-(3,3-difluoroazetidin-1-yl)-1H-1,2,3-triazol-1-yl]acetyl}-4-fluoro-N-[(S)-[6-fluoro-5-(propan-2-yl)pyridin-2-yl](phenyl)methyl] pyrrolidine-2-carboxamide]	–	19	450
Cn1cc(CC(=O)N2C[C@H](F)C[C@H]2C(=O)N[C@@H](c2ccccc2)c2ccc(C3CC3)c(F)n2)c(C(F)F)n1 [Compound 749, (2S,4R)-N-[(S)-(5-cyclopropyl-6-fluoropyridin-2-yl)(phenyl)methyl]-1-{2-[3-(difluoromethyl)-1-methyl-1H-pyrazol-4-yl]acetyl}-4-fluoropyrrolidine-2-carboxamide]	–	6	250
CC(=O)NCC(=O)N1C[C@H](F)C[C@H]1C(=O)NC(c1cccc(-c2ccn[nH]2)c1)c1ccc(C(C)C)c(F)n1 (single isomer, unassigned) [Compound 691, (2S,4R)-1-(2-acetamidoacetyl)-4-fluoro-N-[(S) or (R)-[6-fluoro-5-(propan-2-yl)pyridin-2-yl][3-(1H-pyrazol-5-yl)phenyl]methyl] pyrrolidine-2-carboxamide]	–	15	390
CCn1cccc(CC(=O)N2C[C@H](F)C[C@H]2C(=O)N[C@@H](c2ccccc2)c2ccc(C3CC(F)(F)C3)c(F)n2)c1=O [Compound 526, (2S,4R)-N-[(S)-[5-(3,3-difluorocyclobutyl)-6-fluoropyridin-2-yl](phenyl)methyl]-1-[2-(1-ethyl-2-oxo-1,2-dihydropyridin-3-yl)acetyl]-4-fluoropyrrolidine-2-carboxamide]	–	11	130
Cn1c(=O)[nH]c2c(C(NC(=O)[C@@H]3C[C@@H](F)CN3C(=O)Cc3cnn[nH]3)c3ccc(C4CC4)c(F)c3)cccc21 (single isomer, unassigned) [Compound 650, (2S,4R)-N-[(R) or (S)-(4-cyclopropyl-3-fluorophenyl)(1-methyl-2-oxo-2,3-dihydro-1H-1,3-benzodiazol-4-yl)methyl]-4-fluoro-1-[2-(1H-1,2,3-triazol-5-yl)acetyl]pyrrolidine-2-carboxamide]	–	1440	> 10000
O=C(N[C@@H](c1ccccc1)c1ccc(C2CC2)c(F)n1)[C@@H]1C[C@@H](F)CN1C(=O)Cn1nccc1C(F)(F)F [Compound 760, (2S,4R)-N-[(S)-(5-cyclopropyl-6-fluoropyridin-2-yl)(phenyl)methyl]-4-fluoro-1-{2-[5-(trifluoromethyl)-1H-pyrazol-1-yl]acetyl}pyrrolidine-2-carboxamide]	–	17	370
O=C(N[C@H](c1ccccc1)c1ccc(C2CC(F)(F)C2)c(F)n1)[C@@H]1C[C@@H](F)CN1C(=O)Cc1ccc[nH]c1=O [Compound 521, (2S,4R)-N-[(R)-[5-(3,3-difluorocyclobutyl)-6-fluoropyridin-2-yl](phenyl)methyl]-4-fluoro-1-[2-(2-oxo-1,2-dihydropyridin-3-yl)acetyl]pyrrolidine-2-carboxamide]	–	2610	> 30000
